Measured values taken from patent US20090142330A1, “Use of inactive-plasmin to treat chronic inflammatory disease and tumors” (The Government of the United States of America as …, priority 2007, published 2009).

How the values were obtained:
Assay type in all cases: cell-based, human
p38 MAPK = test: Phosphorylation of p38 MAPK in monocytes, Western blot; settings: LPS-stimulated monocytes, 1 hour; FIG. 5B
Protocol: (§1) For detection of the levels of activated ERK1/2 and p38 MAPKs monocytes were cultured in DMEM at 5×10^6/ml in suspension. Ten to 60 minutes after the addition of reagents, the cells were pelleted and lysed with SDS loading buffer (prepared as described above). The supernatants were loaded onto 12% Tris-glycine gels. The blots were then incubated overnight with mouse anti-human antibodies against the phosphorylated forms of ERK1/2 and p38 and with rabbit anti-human antibodies against total ERK1/2 and p38 as a measure of equal loading of the gels.
(§2) Western blots for MMP-1, MAPKs and COX-2 were incubated overnight with primary antibodies, washed and analyzed by the addition of Alexa Fluor 680 goat anti-rabbit or Alexa Fluor 750 goat anti-mouse antibodies (Molecular Probes® Inc., Eugene, Oreg.) and the infrared fluorescence detected with the Odyssey infrared imaging system (LI-COR, Lincoln, Nebr.). Densitometry analysis of the bands on the Western blots was determined with the LI-COR software analysis program or the ImageQuant software analysis program (Amersham Biosciences, Piscataway, N.J.).

ERK1/2 = test: Phosphorylation of ERK1/2 in monocytes, Western blot; settings: LPS-stimulated monocytes, 1 hour; FIG. 5B
Protocol: as §1, §2

PGE2 = PGE2 in monocyte culture supernatants, ELISA; settings: LPS-stimulated monocytes, 24 hours; FIG. 4B
Protocol: FIGS. 4A-4C illustrate that stimulation of MMP-1 by HMW-uPA and plasmin is mediated in part by PGE2. FIG. 4A is a digital image depicting cyclooxygenase-2 (COX-2) protein levels detected in monocyte cultures determined by Western blot analysis in the presence of HMW-uPA (30 nM) or plasmin (360 nM) in the absence or presence of LPS (25 ng/ml). β-actin protein levels were detected to serve as an indicator for equal sample loading. FIG. 4B is a bar graph illustrating media levels of PGE2 measured by ELISA at 24 hours. FIG. 4C is a digital image illustrating MMP-1 protein levels detected by Western blot analysis in monocyte cultures following incubation with indomethacin for 30 minutes prior to the addition of LPS, HMW-uPA, plasmin or PGE2 (1 μM).

MMP-1 mRNA in monocytes = test: MMP-1 mRNA in monocytes, semiquantitative RT-PCR; settings: FIG. 2C
Protocol: Plasmin activity assay. Plasmin activity was determined with the SPECTROZYME PL kit (American Diagnostica Inc., Stamford, Conn.) which utilizes the chromogenic substrate H-D-norleucyl-hexahydrotyrosol-lysine-para-nitroanilide diacetate. For detection of cell-associated plasmin activity, monocytes were cultured at 1×10^6/well in Hanks Balanced Solution containing calcium and magnesium (Hyclone, Logan, Utah) with the plasmin substrate. Kinetic absorbance readings were measured at 405 nm. RT-PCR. Total cellular RNA was extracted with the RNeasy Mini Kit (QIAGEN® Inc., Valencia, Calif.) 8 hours after stimulation of monocytes with LPS. Transcript levels of MMP-1 were determined using semiquantitative reverse transcriptase-polymerase chain reaction (RT-PCR) with GADPH as an internal control. […] The amplified DNA was separated by 1.7% agarose gel electrophoresis, stained with SYTO 60 red fluorescent nucleic acid stain (Molecular Probes®, Eugene, Oreg.), and the intensity of the stained bands was analyzed with an infrared imaging system. […] FITC-conjugated BSA, plasmin (2.5 μg in 10 μl) or anti-human antibodies (1-2.5 μg/10 μl) then were added, respectively, incubated for 30 min and washed and analyzed by the FACSCalibur system (Becton Dickinson Biosciences, Franklin Lakes, N.J.). […] Flow cytometry results were analyzed by CELLQuest software (Becton Dickinson Biosciences, Franklin Lakes, N.J.). […]

plasmin
phosphorylation of p38 (p38 MAPK): induced increases
phosphorylation of ERK1/2 (ERK1/2): induced increases
PGE2 levels in monocyte culture supernatants (PGE2): increased PGE2 levels
MMP-1 mRNA level (MMP-1 mRNA in monocytes; LPS-stimulated monocytes, 8 hours): dose-dependent increase
induction of MMP-1 mRNA (MMP-1 mRNA in monocytes; control (unstimulated) monocytes): did not induce MMP-1
